Reference: patent publication EP0745595A1, “3-(3-Aryloxyphenyl)-1-(substituted methyl)-s-triazine-2,4,6-oxo or thiotrione herbicidal agents” (American Cyanamid Company, priority 1995, dated 1996)

Key:
Assay type in all cases: in vivo
CHENOPODIUM ALBUM, L. = assay: Postemergence herbicidal evaluation, CHEAL (Lambsquarters, Common)
Procedure, shortened: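 Seedlings of common lambsquarters (Chenopodium album) were raised in jiffy flats for roughly two weeks, then sprayed postemergence through a nozzle at 40 psi with test compound dispersed in 50/50 acetone/water containing 0.5% TWEEN®20 surfactant. Plants were kept on greenhouse benches under standard care and rated visually on a 0-9 scale versus controls.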

GALIUM APARINE = assay: Preemergence herbicidal evaluation, GALAP (Galium); details: rated four to five weeks after treatment
Procedure, shortened: (§1)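 Rated 0-9 by visual comparison with control (stand, vigor, malformation, size, chlorosis, overall appearance) four to five weeks after preemergence soil spray. Dose equivalent to about 0.125 to 0.50 kg per hectare, applied in aqueous acetone to freshly seeded cups kept in greenhouse.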

[1] = system: CYPERUS SEROTINUS, ROTTB.; assay: Preemergence weed control under flooded paddy conditions, CYPSE (Flatsedge); details: preemergence, 3-4 weeks after treatment
Procedure, shortened: (§2)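 Flooded paddy preemergence test: seeds/propagating organs in top 0.5 cm silt loam, water held 1.5-3 cm above soil. Dosing by pipette into flood water, aqueous/acetone 50/50 v/v, ~0.5, 0.25, 0.125, 0.063 kg/ha a.i. Greenhouse; read at 3-4 wk, 0-9 visual scale.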

[2] = system: ORYZA SATIVA, L. TEBONNET; assay: Rice tolerance to post-transplant applications under flooded paddy conditions, ORYSAT (Rice, Tebonnet); details: post-transplant rice, 3-4 weeks after treatment
Procedure, shortened: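 Post-transplant paddy test: compound applied 3 d after transplanting to flooded soil (1.5-3 cm water), ~0.063-0.5 kg/ha a.i., 50/50 aq/acetone. Silt loam, 2 × 10-d seedlings/pot. Greenhouse 3-4 wk, visual 0-9 score vs control.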

IPOMOEA SPP. = assay: Preemergence herbicidal evaluation, IPOSS (Morningglory spp.); details: rated four to five weeks after treatment
Procedure, shortened: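 Seeds of morningglory (Ipomoea spp.) were mixed with potting soil and sown on roughly one inch of soil in pint cups for a preemergence herbicide test. The cups were put on greenhouse benches, watered, and maintained by standard greenhouse practice. Four to five weeks after treatment each cup was scored visually on a 0-9 scale against a control.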

[3] = system: GLYCINE MAX(L) MERR. CV. WILLIAMS; assay: Preemergence herbicidal evaluation, GLXMAW (Soybean, Williams); details: rated four to five weeks after treatment
Procedure, shortened: as §1

ZEA MAYS L. = assay: Preemergence herbicidal evaluation, ZEAMX (Corn, Field); details: rated four to five weeks after treatment
Procedure, shortened: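 Corn (Zea mays) seeds were mixed with potting soil and planted on about one inch of soil in pint cups, then treated preemergence. Cups were kept on greenhouse benches, watered and maintained conventionally, and after four to five weeks were visually rated on a 0-9 scale versus an untreated control.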

[4] = system: ABUTILON THEOPHRASTI, MEDIC.; assay: Preemergence herbicidal evaluation, ABUTH (Velvetleaf); details: rated four to five weeks after treatment
Procedure, shortened: as §1

[5] = system: ECHINOCHLOA CRUS-GALLI, (L) BEAU; assay: Preemergence herbicidal evaluation, ECHCG (Barnyardgrass); details: rated four to five weeks after treatment
Procedure, shortened: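 Barnyardgrass seeds were mixed with potting soil and planted on about one inch of soil in pint cups for preemergence testing. Treated cups were kept on greenhouse benches, watered and maintained by standard greenhouse practice. After four to five weeks, each cup was visually rated on a 0-9 scale against an untreated control.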

[6] = system: AMBROSIA ARTEMISIIFOLIA, L.; assay: Preemergence herbicidal evaluation, AMBEL (Ragweed, Common); details: rated four to five weeks after treatment
Procedure, shortened: as §1

SAGITTARIA PYGMAEA, L. = assay: Preemergence weed control under flooded paddy conditions, SAGPY (Arrowhead (Pygmaea)); details: preemergence, 3-4 weeks after treatment
Procedure, shortened: as §2

[7] = system: ORYZA SATIVA, L. TEBONNET; assay: Preemergence herbicidal evaluation, ORYSAT (Rice, Tebonnet); details: rated four to five weeks after treatment
Procedure, shortened: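 Seeds of rice (Oryza sativa, Tebonnet) were mixed with potting soil and sown on about one inch of soil in pint cups, then treated preemergence. Cups sat on greenhouse benches, watered and tended by standard greenhouse practice. Four to five weeks after treatment, plants were visually scored on a 0-9 scale relative to a control.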

[8] = system: TRITICUM AESTIVUM, CV. APOLLO; assay: Preemergence herbicidal evaluation, TRZAWO (Wheat, Winter, CV. APOLLO); details: rated four to five weeks after treatment
Procedure, shortened: as §1

[9] = system: SETARIA VIRIDIS, (L) BEAU; assay: Preemergence herbicidal evaluation, SETVI (Foxtail, Green); details: rated four to five weeks after treatment
Description: Results of herbicide evaluation are expressed on a rating scale (0-9). The scale is based upon a visual observation of plant stand, vigor, malformation, size, chlorosis and overall plant appearance as compared with a control.
The preemergence herbicidal activity of the test compounds of the present invention is exemplified by the following tests in which the seeds of a variety of monocotyledonous and dicotyledonous plants are separately mixed with potting soil and planted on top of approximately one inch of soil in separate pint cups. […] The treated cups are then placed on greenhouse benches, watered and cared for in accordance with conventional greenhouse procedures. From four to five weeks after treatment, the tests are terminated and each cup is examined and rated according to the rating system provided in Example 40.
The compounds evaluated are reported by compound number given in Example 40.

[10] = system: GLYCINE MAX(L) MERR. CV. WILLIAMS; assay: Postemergence herbicidal evaluation, GLXMAW (Soybean, Williams); design: key to GLXMAW rating / Herbicidal effect rating, GLXMAW / GLXMAW: 0-9 visual rating scale vs untreated control
Procedure, shortened: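 Soybean seedlings (Williams) were raised in jiffy flats for roughly two weeks, then sprayed postemergence through a nozzle at 40 psi with test compound dispersed in 50/50 acetone/water containing 0.5% TWEEN®20. Treated plants were kept on greenhouse benches under normal care and visually rated on a 0-9 scale four to five weeks later.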

COC(=O)Cn1c(=O)n(C)c(=O)n(-c2cc(Oc3ccc([S+](C)[O-])cc3Cl)ccc2[N+](=O)[O-])c1=O (stereo not drawn) [Compound 36]
CHEAL rating (CHENOPODIUM ALBUM, L.; Rate 0.125 kg/ha): 8.0 | CHEAL rating (CHENOPODIUM ALBUM, L.; Rate 0.250 kg/ha): 8.0 | CHEAL rating (CHENOPODIUM ALBUM, L.; Rate 0.500 kg/ha): 8.0 | GALAP herbicidal rating (GALIUM APARINE; Rate 0.125 kg/ha): 0.0 | GALAP herbicidal rating (GALIUM APARINE; Rate 0.250 kg/ha): 0.0 | GALAP herbicidal rating (GALIUM APARINE; Rate 0.500 kg/ha): 0.0 | Herbicidal effect rating, CYPSE ([1]; 0.063 kg/ha): 0.0 | Herbicidal effect rating, CYPSE ([1]; 0.125 kg/ha): 0.0 | Herbicidal effect rating, CYPSE ([1]; 0.250 kg/ha): 0.0 | Herbicidal effect rating, CYPSE ([1]; 0.500 kg/ha): 0.0 | Herbicidal effect rating, ORYSAT ([2]; 0.063 kg/ha): 0.0 | Herbicidal effect rating, ORYSAT ([2]; 0.125 kg/ha): 0.0 | Herbicidal effect rating, ORYSAT ([2]; 0.250 kg/ha): 0.0 | Herbicidal effect rating, ORYSAT ([2]; 0.500 kg/ha): 0.0 | IPOSS herbicidal rating (IPOMOEA SPP.; Rate 0.125 kg/ha): 0.0 | IPOSS herbicidal rating (IPOMOEA SPP.; Rate 0.250 kg/ha): 0.0 | IPOSS herbicidal rating (IPOMOEA SPP.; Rate 0.500 kg/ha): 0.0 | GLXMAW herbicidal rating ([3]; Rate 0.125 kg/ha): 0.0 | GLXMAW herbicidal rating ([3]; Rate 0.250 kg/ha): 0.0 | GLXMAW herbicidal rating ([3]; Rate 0.500 kg/ha): 0.0 | ZEAMX herbicidal rating (ZEA MAYS L.; Rate 0.125 kg/ha): 0.0 | ZEAMX herbicidal rating (ZEA MAYS L.; Rate 0.250 kg/ha): 0.0 | ZEAMX herbicidal rating (ZEA MAYS L.; Rate 0.500 kg/ha): 0.0 | ABUTH herbicidal rating ([4]; Rate 0.125 kg/ha): 0.0 | ABUTH herbicidal rating ([4]; Rate 0.250 kg/ha): 0.0 | ABUTH herbicidal rating ([4]; Rate 0.500 kg/ha): 0.0 | ECHCG herbicidal rating ([5]; Rate 0.125 kg/ha): 0.0 | ECHCG herbicidal rating ([5]; Rate 0.250 kg/ha): 0.0 | ECHCG herbicidal rating ([5]; Rate 0.500 kg/ha): 0.0 | AMBEL herbicidal rating ([6]; Rate 0.125 kg/ha): 0.0 | AMBEL herbicidal rating ([6]; Rate 0.250 kg/ha): 0.0 | AMBEL herbicidal rating ([6]; Rate 0.500 kg/ha): 0.0 | Herbicidal effect rating, SAGPY (SAGITTARIA PYGMAEA, L.; 0.063 kg/ha): 0.0 | Herbicidal effect rating, SAGPY (SAGITTARIA PYGMAEA, L.; 0.125 kg/ha): 0.0 | Herbicidal effect rating, SAGPY (SAGITTARIA PYGMAEA, L.; 0.250 kg/ha): 0.0 | Herbicidal effect rating, SAGPY (SAGITTARIA PYGMAEA, L.; 0.500 kg/ha): 0.0 | ORYSAT herbicidal rating ([7]; Rate 0.125 kg/ha): 0.0 | ORYSAT herbicidal rating ([7]; Rate 0.250 kg/ha): 0.0 | ORYSAT herbicidal rating ([7]; Rate 0.500 kg/ha): 0.0 | TRZAWO herbicidal rating ([8]; Rate 0.125 kg/ha): 0.0 | TRZAWO herbicidal rating ([8]; Rate 0.250 kg/ha): 0.0 | TRZAWO herbicidal rating ([8]; Rate 0.500 kg/ha): 0.0 | SETVI herbicidal rating ([9]; Rate 0.125 kg/ha): 0.0 | SETVI herbicidal rating ([9]; Rate 0.250 kg/ha): 0.0 | SETVI herbicidal rating ([9]; Rate 0.500 kg/ha): 0.0 | GLXMAW rating ([10]; Rate 0.125 kg/ha): 5.0 | GLXMAW rating ([10]; Rate 0.250 kg/ha): 5.0 | GLXMAW rating ([10]; Rate 0.500 kg/ha): 5.0
